From US5866346A (priority 1997, dated 1999)
Like-named read-outs stand apart in the source and are kept apart here.

Legend:
[1] = biological target: T1, XOR1 (rat opioid receptor-like novel receptor) (Rattus norvegicus, UniProt P35370); assay: Inhibition of forskolin-stimulated cyclic AMP increase in cells transiently transfected with XOR1; assay type: cell-based; settings: 5 μM ligand, 10 μM forskolin
T1 construct: expressed in transfected cells; host or cells: CHO-K1 and HEK-293 cells, transient calcium phosphate transfection
Procedure: FIGS. 4A and 4B. Inhibition of forskolin-stimulated cyclic AMP increase by dyn A-(1-13). CHO-K1 or HEK-293 cells transiently transfected with the XOR1 clone were treated with 10 μM forskolin with or without 5 μM dyn A-(1-13). The control cells were transfected with the plasmid vector and underwent the same treatment. Intracellular cyclic AMP content was determined using a radioimmunoassay kit (DuPont/NEN). Data are shown as mean ± S.E. (n=2). * indicates a significant-difference from the forskolin-only treated cells (Student's t-test, p<0.01).
Cell transfection and cyclic AMP assay--The CHO-K1 and HEK-293 cells were transiently transfected with either XOR1 (rat opioid receptor-like novel receptor) cDNA in pRc/CMV (Invitrogen) or vector only (as control) by calcium phosphate method as described by Chen et al., Mol. Cell Biol. 7:2745-2752 (1987). Three days after transfection, cells were harvested by trypsin treatment, washed and resuspended in serum-free medium. Cells were treated with ligands in the presence of 10 μM forskolin and 1 mM 3-iosbutyl-1-methylxanthine at 37° C. for 20 min. The reaction was terminated by adding 1/3 volume of 0.25M HCl. The mixture was boiled for 5 min and centrifuged at 14,000 g for 10 min. […] The cAMP in cells was determined by the nonacetylated method using the radioimmunoassay kit (DuPont/NEN) according to the manufacturer's instructions.

[2] = biological target: kappa opioid receptor (KOR) (Rattus norvegicus, UniProt P34975); settings: cited from earlier work
[3] = biological target: kappa opioid receptor (KOR) (Cavia porcellus, UniProt P41144); settings: read-out: KOR (Ki) Guinea pig (36); cited from earlier work
kappa opioid receptor (KOR) (Cavia porcellus, UniProt P41144), sequence (P41144 whole entry): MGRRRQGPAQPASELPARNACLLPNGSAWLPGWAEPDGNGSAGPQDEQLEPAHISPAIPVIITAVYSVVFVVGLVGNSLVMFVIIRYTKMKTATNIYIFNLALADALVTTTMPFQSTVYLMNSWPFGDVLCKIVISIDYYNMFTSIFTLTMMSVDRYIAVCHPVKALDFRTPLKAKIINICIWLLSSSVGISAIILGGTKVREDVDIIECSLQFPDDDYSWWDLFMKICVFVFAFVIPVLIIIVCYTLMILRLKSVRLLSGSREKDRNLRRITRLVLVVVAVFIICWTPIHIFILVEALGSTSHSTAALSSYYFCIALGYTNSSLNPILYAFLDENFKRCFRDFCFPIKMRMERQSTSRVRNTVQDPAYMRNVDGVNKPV

kappa opioid receptor (KOR) (Rattus norvegicus, UniProt P34975), sequence (P34975 whole entry): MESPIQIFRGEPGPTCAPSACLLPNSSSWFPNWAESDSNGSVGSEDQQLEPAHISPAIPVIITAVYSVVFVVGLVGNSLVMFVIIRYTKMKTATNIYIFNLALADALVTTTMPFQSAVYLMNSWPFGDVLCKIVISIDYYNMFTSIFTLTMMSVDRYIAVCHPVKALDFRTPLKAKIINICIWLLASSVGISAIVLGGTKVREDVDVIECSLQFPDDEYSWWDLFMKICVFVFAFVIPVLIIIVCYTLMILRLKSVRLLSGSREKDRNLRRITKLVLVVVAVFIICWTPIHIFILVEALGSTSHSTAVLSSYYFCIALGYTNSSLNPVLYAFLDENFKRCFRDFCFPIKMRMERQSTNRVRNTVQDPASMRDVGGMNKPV
T1 sequence (P35370 whole entry): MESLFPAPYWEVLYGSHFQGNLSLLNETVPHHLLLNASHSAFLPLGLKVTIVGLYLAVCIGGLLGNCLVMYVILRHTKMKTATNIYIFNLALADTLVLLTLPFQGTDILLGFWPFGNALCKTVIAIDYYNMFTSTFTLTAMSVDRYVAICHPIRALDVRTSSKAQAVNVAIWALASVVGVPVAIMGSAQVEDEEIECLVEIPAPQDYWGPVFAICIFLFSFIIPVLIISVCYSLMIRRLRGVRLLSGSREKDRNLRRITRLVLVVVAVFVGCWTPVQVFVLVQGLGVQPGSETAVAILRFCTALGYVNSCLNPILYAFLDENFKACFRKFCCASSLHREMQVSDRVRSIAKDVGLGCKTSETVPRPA

Row | SMILES | inhibition of forskolin-stimulated cAMP increase ([1]; CHO-K1 cells) | inhibition of forskolin-stimulated cAMP increase ([1]; HEK-293 cells) | Ki ([2]; read-out: KOR (Ki) Rat (34)) | Ki [3] | Ki ([2]; read-out: KOR (Ki) Rat (27)) | Ki ([2]; read-out: KOR (Ki) Rat (33))
1 | CC[C@H](C)[C@H](NC(=O)[C@H](CCCNC(=N)N)NC(=O)[C@H](CCCNC(=N)N)NC(=O)[C@H](CC(C)C)NC(=O)[C@H](Cc1ccccc1)NC(=O)CNC(=O)CNC(=O)[C@@H](N)Cc1ccc(O)cc1)C(=O)N[C@@H](CCCNC(=N)N)C(=O)N1CCC[C@H]1C(=O)N[C@@H](CCCCN)C(=O)N[C@@H](CC(C)C)C(=O)N[C@@H](CCCCN)C(=O)O [dyn A-(1-13), dynorphin A (1-13)] | 51% | 35% | 0.12 nM | 0.71 nM |  | 
2 | CC[C@H](C)[C@H](NC(=O)[C@H](CCCNC(=N)N)NC(=O)[C@H](CCCNC(=N)N)NC(=O)[C@H](CC(C)C)NC(=O)[C@H](Cc1ccccc1)NC(=O)CNC(=O)CNC(=O)[C@@H](N)Cc1ccc(O)cc1)C(=O)N[C@@H](CCCNC(=N)N)C(=O)N1CCC[C@H]1C(=O)N[C@@H](CCCCN)C(=O)N[C@@H](CC(C)C)C(=O)N[C@@H](CCCCN)C(=O)N[C@@H](Cc1c[nH]c2ccccc12)C(=O)N[C@@H](CC(=O)O)C(=O)N[C@@H](CC(N)=O)C(=O)N[C@@H](CCC(N)=O)C(=O)O [dyn A, dynorphin A] |  |  | 0.11 nM | 0.58 nM | 0.15 nM | 0.05 nM
